Assay results reported in patent US6699676B1, “Uses of ouabain and ouabain-like molecules in apoptosis related pathologies” (Corporation du Centre de Recherche du Centre, Hospitalier …, priority 1999, dated 2004).

Tests used:
VSMC-E1A = experiment: Chromatin cleavage assay in VSMC-E1A; format: cell-based, rat; conditions: VSMC-E1A; for Increment of chromatin fragments triggered by serum withdrawal(%): 1 mM, pretreated 2 hours then 3 hours with or without calf serum, control increment taken as 100%
Procedure: FIG. 2. Effect of ouabain on chromatin cleavage in VSMC-E1A. (A) Kinetics of the accumulation of chromatin fragments in control (curves 1, 3) and ouabain-treated (curves 2, 4) VSMC-E1A in the presence of 10% calf serum (CS, curves 1, 2) or in CS-free medium (curves 3, 4). Mean values ±S.E. obtained in experiments performed in quadruplicate are given. (B) Content of chromatin fragments in VSMC-E1A subjected to 6 hr of incubation in serum-supplied medium with or without 1 mM ouabain, 0.25 μM staurosporine, 1 μM okadaic acid and 350 mM mannitol. Mean values±S.E. obtained in 3 experiments performed in quadruplicate are given. ★, ★★ p<0.05 and 0.001 compared to ouabain-untreated cells. In both experiments, ouabain was added 1 hour before triggering of apoptosis.
Cells were incubated in K^+-containing medium consisting of 91 mM NaCl, 5 mM KCl, 0.9 mM NaH2PO4, 44 mM NaHCO3, 1.8 mM CaCl2, 0.8 mM MgCl2, 33 mM HEPES and 5 mM D-glucose (pH 7.4) (lines 1 and 2) or in K^+-depleted medium (equimolar substitution of KCl by NaCl, line 3) with or without 10% calf serum (CS) and 1 mM ouabain as indicated. In experiments with VSMC-MYC and VSMC-E1A, cells were preincubated for 1 hr with ouabain or with K^+-depleted medium in the presence of CS and then subjected to treatment with serum-free media. After 24 hours (VSMC) or 6 hours (VSMC-MYC and VSMC-E1A), the content of chromatin fragments was measured as described in Experimental Procedures. Mean values±S.E. obtained in 3 experiments performed in quadruplicate (VSMC) or triplicate (VSMC-MYC, VSMC-E1A) are given. ★, ★★ p<0.05 and 0.001 compared to the controls.
To estimate chromatin cleavage, cells were incubated for 1 hr in the presence of 10% calf serum (CS) in the control solution (DMEM, [Na^+]=137 mM; [K^+]=5 mM—line 1) or under equimolar substitution of NaCl by KCl ([Na^+]=14 mM; [K^+]=128 mM—line 2) with or without 1 mM ouabain and then for an additional 6 hours in the same media with or without CS. Intracellular Na^+ and K^+ content was measured as steady-state distribution of isotopes after 24 hours preincubation of cells in control Na^+-enriched solution containing 0.5 μCi/ml ^86Rb or 2 μCilml ^22Na, and additional 6 hours incubation in Na^+—(line 1) or K^+—(line 2) enriched medium, containing 10% CS and isotopes with the same specific activity with or without 1 mM ouabain. For more details see Experimental Procedures. Mean values±S.E. obtained in 3 experiments performed in triplicate (ion content) or quadruplicate (chromatin cleavage) are given. ★p<0.001 compared to ouabain-untreated cells.
VSMC-E1A cells were pretreated with compounds indicated in the left column during 2 hours in DMEM containing 10% calf serum and then additional 3 hours in the absence or presence of calf serum. The increment of the content of chromatin fragments triggered by serum withdrawal in control cells was taken as 100%. Means+S.E. from experiments performed with quadruplicate are given. ★p<0.001 as compared to control.
(§1) Cells. VSMC were obtained by explant methods from aortas of 10- to 13-week-old male rats as described previously (17), cultured in DMEM with 10% calf serum, 100 U/ml penicillin, 100 µg/ml streptomycin and used between 10 to 16 passages. Cells transfected with c-myc (VSMC-MYC) and E1A-adenovirus (VSMC-E1A) were obtained in accordance with a previously-described protocol (18,19) and were cultured in the same medium with the addition of 500 µg/ml genticin. Jurkat cells were obtained from the American Type Culture Collection and cultured in RPMI 1640 medium supplied with 10% calf serum, antibiotics, sodium pyruvate, glutamate and β-mercaptoethanol.
Chromatin cleavage assay. Chromatin cleavage in VSMC was estimated by a technique described previously in detail (10). Briefly, VSMC grown in 24-well dishes were labeled for 24 hours in serum-supplied DMEM with [^3H]-thymidine (1 μCi/ml), washed with 2×2 ml of DMEM and incubated in serum-supplied DMEM. […]

caspase-3 [1] = format: biochemical, rat; conditions: lysates of VSMC-E1A after 6 hours serum withdrawal, 100 mM added, data not shown
Procedure: (§2) To examine this hypothesis, we measured the activity of caspases in lysates of VSMC-E1A subjected to 6 hours serum withdrawal has been measured.
(§3) Caspase activity. VSMC-E1A seeded in 20 cm^2 flasks and treated as indicated in FIG. 5 were scratched, transferred to centrifuge tubes, washed twice with PBS and lysed in 0.5 ml of buffer A contaming 50 mM tris-HCl (pH 7.4), 5 mM MgCl2, 1 mM EGTA and 0.1% CHAPS. Then, 50-100 μl of cell lysate was mixed with 600 μl of buffer A containing 1 mM dithiothreitol, 40 μM YVAD-AMC or DEVD-AMC with or without 1 μM of caspase-1 and capspase-3 inhibitors (Ac-YVAD-CHO and Ac-DEVD-CHO, respectively), incubated for 2 hours at 37° C. and diluted 15-fold with 80 mM glycine-NaOH buffer (pH 10). Fluorescence of the samples was measured at ex=365 run and em=465 run and calibrated with AMC in the range of 10 to 100 nM. To measure caspase activity in control and ouabain-treated Jurkat cells, 5 ml of suspension containing ˜2×10^7 cells was transferred onto ice and sedimented. The pellet of cells was washed and treated with 0.3 ml of medium A in the same way as VSMC. Protein content was estimated by Bradford methods.

caspase-1 = molecular target: T1, caspase-1 (Rattus norvegicus, UniProt P43527); format: biochemical; conditions: lysates of VSMC-E1A after 6 hours serum withdrawal, 100 mM added, data not shown
T1 construct: we measured the activity of caspases in lysates of VSMC-E1A subjected to 6 hours serum withdrawal; endogenous in cells; host or cells: VSMC-E1A (rat aortic vascular smooth muscle cells transfected with E1A adenoviral protein), cell lysate
T1 sequence (P43527 119-402): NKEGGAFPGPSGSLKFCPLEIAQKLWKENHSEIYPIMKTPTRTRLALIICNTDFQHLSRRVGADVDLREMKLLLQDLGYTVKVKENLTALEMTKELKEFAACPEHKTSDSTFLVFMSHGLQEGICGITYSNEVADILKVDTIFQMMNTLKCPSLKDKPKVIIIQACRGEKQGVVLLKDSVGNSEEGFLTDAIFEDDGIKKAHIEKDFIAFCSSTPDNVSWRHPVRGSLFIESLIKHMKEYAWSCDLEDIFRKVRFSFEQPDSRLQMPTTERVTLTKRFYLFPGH
Procedure: as §2, §3

caspase-3 [2] = experiment: Caspase-3 activity in treated VSMC-E1A; format: cell-based, rat; conditions: 6 hours, staurosporine 0.25 μM, okadaic acid 1 μM
Procedure: (§4) FIG. 5. Effect of ouabain on caspase-3 activity in VSMC-E1A (A) and Jurkat cells (B). VSMC-E1A and Jurkat cells were pretreated with 1 mM ouabain for 1 and 2 hours, respectively, and the additions indicated below the bars were delivered in media with 10% calf serum and with the baseline (137/5) or inverse (14/128) [Na^+]o/[K^+]o ratio for 6 (VSMC-E1A) or 3 hours (Jurkat cells). In experiments with VSMC-E1A, calf serum (CS) was omitted where indicated (−). Abbreviations: staur.—staurosporine (0.25 μM), ok.ac.—okadaic acid (1 μM), mann.—mannitol (350 mM); Fas-L—Fas ligand (100 ng/ml). Mean values±S.E. obtained in experiments performed in quadruplicate (A) or triplicate (B) are given. ★p<0.001 compared to ouabain-untreated cells.
as §3

Jurkat cells = experiment: Chromatin cleavage assay in Jurkat cells; format: cell-based, human; conditions: for Chromatin fragments (%): Jurkat cells without ouabain, +Fas-L 100 ng/ml, 7 hours
Procedure: FIG. 4. Effect of ouabain on chromatin cleavage in Jurkat cells. (A) Kinetics of accumulation of chromatin fragments in control (curves 1, 3) and ouabain-treated (curves 2, 4) cells in the absence (curves 1, 2) or presence (curves 3, 4) of 100 ng/ml of anti-human Fas (mouse monoclonal IgM, Upstate Biotechnology, Lake Placid, N.Y.); (B) Content of chromatin fragments in Jurkat cells subjected to 3 hours of incubation with or without 1 mM ouabain, 0.25 μM staurosporine and 350 mM mannitol. In both experiments, ouabain was added 2 hours before triggering of apoptosis. Mean values±S.E. obtained in experiments performed in triplicate are given.
To estimate chromatin cleavage, cells were incubated for 2 hours in the presence of 10% calf serum in the control solution (DMEM, [Na^+]=137 mM; [K^+]=5 mM—line 1) or under equimolar substitution of NaCl with KCl ([Na^+]=14 mM; [K^+]=128 mM—line 2) with or without 1 mM ouabain and then for an additional 7 hours at the same media with or without 100 ng/ml Fas ligand (Fas-L). Intracellular Na^+ and K^+ content was measured as steady-state distribution of isotopes after 24 hours preincubation of cells in control Na^+-enriched solution containing 0.5 μCi/ml ^86Rb or 2 μCi/ml ^22Na, and an additional 6 hours incubation in Na^+—(line 1) or K^+—(line 2) enriched medium containing 10% calf serum, isotopes with the same specific activity with or without 1 mM ouabain. For more details see Experimental Procedures. Mean values±S.E. obtained in experiments performed in triplicate are given. ★, #p<0.01 and 0.001 compared to ouabain-untreated cells.
as §1
Chromatin cleavage assay. Chromatin cleavage in VSMC was estimated by a technique described previously in detail (10). Briefly, VSMC grown in 24-well dishes were labeled for 24 hours in serum-supplied DMEM with [^3H]-thymidine (1 μCi/ml), washed with 2×2 ml of DMEM and incubated in serum-supplied DMEM. In 48 hr, the cells were pretreated with ouabain or K^+-depleted medium as indicated in FIG. 2 and Table 3, washed twice with serum-containing medium and incubated with 0.5 ml of medium with or without ouabain and containing different inducers of apoptosis. To measure the content of chromatin fragments, the cells were transferred on ice and 1 ml of ice-cold lysed buffer (10 mM EDTA, 10 mM tris-HCl, 0.5% triton X100 (pH 8.0)) was added. After 15 min, the cell lysate was transferred to Ependorf tubes, sedimented (12,000 rpm, 10 mm), and 1 ml of supernatant was transferred for the measurement of radioactivity (A1t). The remaining radioactivity from pellets and wells was extracted with 0.5 ml of 1% SDS/4 mM EDTA mixture, combined and counted (A2). Chromatin cleavage was quantified as the content of chromatin fragments normalized by total content of [^3H]-labeled DNA in accordance with the equation [1.5×(A1t−A1o)/(A2+A1t−1.5A1o)]×100% where A1o is the value of A1t before induction of apoptosis. To measure chromatin fragmentation in [^3H]-thymidine-labeled Jurkat cells, they were resuspended at a density of 10^6 cells/ml in medium containing 10% calf serum and the additions indicated in FIG. 4 and Table 4. At the time intervals shown in FIG. 4, 100 μl of cell suspension was mixed with 100 μl of PBS contairung 0.5% triton X100, and the content of chromatin fragments was measured as described previously in detail (20).

caspase-3 [3] = experiment: Caspase-3 activity in treated Jurkat cells; format: cell-based, human; conditions: 3 hours, Fas ligand 100 ng/ml, staurosporine 0.25 μM, mannitol 350 mM
Procedure: as §4, §3

C[C@H]1O[C@@H](O[C@H]2[C@@H](O)C[C@H](O[C@H]3[C@@H](O)C[C@H](O[C@H]4CC[C@@]5(C)[C@H](CC[C@@H]6[C@@H]5CC[C@]5(C)[C@@H](C7=CC(=O)OC7)CC[C@]65O)C4)O[C@@H]3C)O[C@@H]2C)C[C@H](O)[C@@H]1O [Digitoxin, 5β,20[22]-cardenolide-3β,14-diol-3[O-2,6-dideoxy-β-D-ribohexopyranosyl-(1->4)-2,3-dideoxy-β-D-ribohexo-pyranosyl]oxy]
Increment of chromatin fragments triggered by serum withdrawal(%) (VSMC-E1A): 24 ± 6 %

C[C@H]1O[C@@H](O[C@H]2[C@@H](O)C[C@H](O[C@H]3[C@@H](O)C[C@H](O[C@H]4CC[C@@]5(C)[C@H](CC[C@@H]6[C@@H]5C[C@@H](O)[C@]5(C)[C@@H](C7=CC(=O)OC7)CC[C@]65O)C4)O[C@@H]3C)O[C@@H]2C)C[C@H](O)[C@@H]1O [Digoxin, 12β-hydroxy-digitoxin]
Increment of chromatin fragments triggered by serum withdrawal(%) (VSMC-E1A): 18 ± 4 %

[Cl-].[K+] [KCl]
decrease of caspase-3 activity (caspase-3 [1]): 10-20% | decrease of caspase-1 activity (caspase-1): 10-20%

[Cl-].[Na+] [NaCl]
decrease of caspase-3 activity (caspase-3 [1]): the same level of inhibition | decrease of caspase-1 activity (caspase-1): the same level of inhibition

C[N+](C)(C)CCO.[Cl-] [choline chloride]
decrease of caspase-3 activity (caspase-3 [1]): the same level of inhibition | decrease of caspase-1 activity (caspase-1): the same level of inhibition

C=C1[C@@H](O)[C@@H]2O[C@]3(CC[C@H](/C=C/[C@@H](C)[C@@H]4CC(C)=C[C@@]5(O[C@H](C[C@@](C)(O)C(=O)O)CC[C@H]5O)O4)O3)CC[C@H]2O[C@@H]1[C@@H](O)C[C@H](C)[C@H]1O[C@@]2(CCCCO2)CC[C@H]1C [okadaic acid]
content of chromatin fragments (VSMC-E1A; 6 hr, serum-supplied medium, 0.25 μM staurosporine, 1 μM okadaic acid): 28.3±4.2% | increase of caspase-3 activity (caspase-3 [2]): 10 fold

Fas ligand
Chromatin fragments (%) (Jurkat cells; medium [Na+]o=14, [K+]o=128 mM): 20.0±2.2% | Chromatin fragments (%) (Jurkat cells; medium [Na+]o=14, [K+]o=128 mM, listed as Fas-L): 20.2% | Chromatin fragments (%) (Jurkat cells; medium [Na+]o=137, [K+]o=5 mM): 28.5±3.3% | Chromatin fragments (%) (Jurkat cells; medium [Na+]o=137, [K+]o=5 mM, listed as Fas-L): 28.5% | increase of the content of chromatin fragments (Jurkat cells; Jurkat cells, 1.5 hour incubation with Fas ligand 100 ng/ml): 10 fold | increment of the content of chromatin fragments triggered by Fas ligand (Jurkat cells; control Jurkat cells, 7-hr incubation): 23.6±3.9% | increase of caspase-3 activity (caspase-3 [3]): ~30 fold
